# Patent US20110224300A1, “USE OF POTASSIUM 2-(a- HYDROXYPENTYL) BENZOATE IN THE MANUFACTURE OF MEDICAMENTS FOR PREVENTING AND/OR TREATING SENILE [sequence]” (Institute of Mataria Medica, Chinese Academy of Me, priority 2008, published 2011)
# Marks after values point to notes of the source that are not given here.
# Experiments:
# [1] = system: permanent 2-VO rats (chronic cerebral hypoperfusion); assay: Morris water maze in permanent 2-VO (BCCAO) rats; assay type: in vivo, rat; details: for probe trial: time in the platform quadrant and time to cross the platform location / escape latency in the water maze task: 2-VO rats; for probe trial: time in the platform quadrant and time to cross the platform location: compared to 2-VO animals; for escape latency in the water maze task: vs vehicle
# From the text: Chronic cerebral hypoperfusion was proceeded by a permanent, bilateral occlusion of the common carotid arteries (2-VO) of adult rats. The rats were anesthetized with 10% trichloro-acetaldehyde, and temperature probe was inserted into the rectum, and a separate heating lamp was used to maintain rectal temperature at normothermic level. After a midline neck skin incision, the common carotid artery were exposed and ligated by a 5-0 nylon suture.
# Rats were randomly divided into six experimental groups (20 rats/each group): one sham-operated group, one vehicle control group, one piracetam-treated group (600 mg/kg), and three dl-PHPB-treated groups (13, 39, and 129 mg/kg). In 10 days after onset of 2-VO, drugs and vehicle were administered orally to rats for 21 days (one time/each day). The spatial learning and memory capability of rats were detected by Morris water maze in the 25-30 days after operation. The Morris water test was commenced at 40 min after drugs treated. The biochemical and pathology assays were conducted later (in 24 h) after behavioral tests.
# Subjects were tested in a Morris water maze. This test is based on a standardized assessment of spatial learning ability. The water maze apparatus consisted of a circular, stainless pool (120 cm in diameter, 60 cm in height). It was placed in a dimly lit, sound-proof test room. Multiple distant cues around the room (window, cabinets, furniture) were kept in the same location throughout the experiments. The water was filled to a depth of 40 cm at 25±1° C. and was made opaque by adding milk powder to prevent visualization of the platform. A transparent platform (10 cm diameter) was put 1.5 cm below the surface of the water. The tank was divided into four quadrants with the platform in a fixed position in one quadrant. The subjects were placed into the maze facing the pool wall and were allowed two trials per day, 60 s per trial, to find the hidden platform. If the subject found the platform within the 60 s, it was given a 10-s rest period on the platform between trials. If the pedestal was not located within the time allotted, the subject was placed on to the platform and allowed 10 s until the next trial. The escape latency (time to reach the platform) was used to assess acquisition of the water maze task. Sessions were repeated for five consecutive days. On the sixth day, the platform was removed and the rat was allowed to search for the platform for 60 s (probe test). The time in the platform quadrant and latency time to cross platform location were recorded to measure the spatial learning ability without the influence of chance encounters with the platform. The Morris water maze sessions were recorded with a video camera for offline analysis.
# SOD = SOD activity of brain tissues from SAMP8 mice; assay type: in vivo; details: 35 days; for SOD activity in the hippocampus: untreated SAMP8 279.4±65.7, P<0.05
# Method: (§1) The biochemical assays were conducted later (in 24 h) after behavioral testing. Eight rats in each group were anesthetized with ether and sacrificed. The brains were quickly removed and cleaned with ice-cold saline. Then the parietal cortex and hippocampus were isolated. For biochemical analysis, the tissues were weighed and homogenized in ice-cold saline with the proportion of 1:9 (w/v). Homogenization (IKA, Germany) was carried out for 2 min in an ice bath. After the homogenates were centrifuged at 2,000×g for 10 min at 4° C. (Sigma, Germany), the supernatant was used for analytical procedures. The levels of choline acetyltransferase (ChAT) SOD, and MDA activities were determined with commercial colorimetric assay kits (Nanjing Jiancheng Bioengineering Institute, China). The content of protein in the supernatant was determined by Bradford method using BSA as standard.
# (§2) SAMP8 were divided into three experimental groups randomly: one vehicle control group, and two dl-PHPB-treated groups (50, and 160 mg/kg). Drugs and vehicle were administered orally to SAMP8 mice for 35 days (one time/each day). The spatial learning and memory abilities of SAMP8 mice were detected by Morris water maze and DTT-2 jumping apparatus in 31-35 days. The testing was commenced at 40 min after drugs treated. The biochemical and pathology assays conducted later (in 24 h) after behavioral testing.
# (§3) The methods as described previously.
# MDA = MDA level of brain tissues from SAMP8 mice; assay type: in vivo; details: 35 days; for MDA level in the hippocampus / decrease of hippocampus MDA level compared with SAMP8: without statistical significance
# Method: as §1, §2, §3
# [2] = dl-PHPB 13 mg/kg, 1st of 5 M/R/T/L column groups (day not printed)
# [3] = dl-PHPB 13 mg/kg, 2nd of 5 M/R/T/L column groups (day not printed)
# [4] = dl-PHPB 13 mg/kg, 3rd of 5 M/R/T/L column groups (day not printed)
# [5] = dl-PHPB 13 mg/kg, 4th of 5 M/R/T/L column groups (day not printed)
# [6] = dl-PHPB 13 mg/kg, 5th of 5 M/R/T/L column groups (day not printed)
# [7] = dl-PHPB 39 mg/kg, 1st of 5 M/R/T/L column groups (day not printed)
# [8] = dl-PHPB 39 mg/kg, 2nd of 5 M/R/T/L column groups (day not printed)
# [9] = dl-PHPB 39 mg/kg, 3rd of 5 M/R/T/L column groups (day not printed)
# [10] = dl-PHPB 39 mg/kg, 4th of 5 M/R/T/L column groups (day not printed)
# [11] = dl-PHPB 39 mg/kg, 5th of 5 M/R/T/L column groups (day not printed)
# [12] = dl-PHPB 129 mg/kg, 1st of 5 M/R/T/L column groups (day not printed)
# [13] = dl-PHPB 129 mg/kg, 2nd of 5 M/R/T/L column groups (day not printed)
# [14] = dl-PHPB 129 mg/kg, 3rd of 5 M/R/T/L column groups (day not printed)
# [15] = dl-PHPB 129 mg/kg, 4th of 5 M/R/T/L column groups (day not printed)
# [16] = dl-PHPB 129 mg/kg, 5th of 5 M/R/T/L column groups (day not printed)
compound,measurement,setting,value
"CCCCC(O)c1ccccc1C(=O)[O-].[K+] (racemic) [dl-PHPB, Potassium 2-(1-Hydroxypentyl)-benzoate]",probe trial: time in the platform quadrant and time to cross the platform location,[1]; 13 mg/kg orally 21 days,markedly showed ameliorative effect
same,escape latency in the water maze task,[1]; 13 mg/kg orally daily for 21 days,did not differ from the vehicle control animals
same,probe trial: time in the platform quadrant and time to cross the platform location,[1]; 39 mg/kg orally 21 days,markedly showed ameliorative effect
same,escape latency in the water maze task,[1]; 39 mg/kg orally daily for 21 days,significantly rescued learning impairment
same,escape latency in the water maze task,[1]; 129 mg/kg orally daily for 21 days,significantly rescued learning impairment
same,"search strategy times, linear mode (L)",[1]; [2],1
same,"search strategy times, marginal mode (M)",[1]; [2],11
same,"search strategy times, random mode (R)",[1]; [2],13
same,"search strategy times, tendency mode (T)",[1]; [2],11
same,"search strategy times, linear mode (L)",[1]; [3],6
same,"search strategy times, marginal mode (M)",[1]; [3],3
same,"search strategy times, random mode (R)",[1]; [3],11
same,"search strategy times, tendency mode (T)",[1]; [3],16
same,"search strategy times, linear mode (L)",[1]; [4],5
same,"search strategy times, marginal mode (M)",[1]; [4],0
same,"search strategy times, random mode (R)",[1]; [4],10
same,"search strategy times, tendency mode (T)",[1]; [4],21
same,"search strategy times, linear mode (L)",[1]; [5],7
same,"search strategy times, marginal mode (M)",[1]; [5],0
same,"search strategy times, random mode (R)",[1]; [5],9
same,"search strategy times, tendency mode (T)",[1]; [5],20
same,"search strategy times, linear mode (L)",[1]; [6],4
same,"search strategy times, marginal mode (M)",[1]; [6],0
same,"search strategy times, random mode (R)",[1]; [6],5
same,"search strategy times, tendency mode (T)",[1]; [6],26
same,"search strategy times, linear mode (L)",[1]; [7],2
same,"search strategy times, marginal mode (M)",[1]; [7],7
same,"search strategy times, random mode (R)",[1]; [7],15
same,"search strategy times, tendency mode (T)",[1]; [7],12
same,"search strategy times, linear mode (L)",[1]; [8],4
same,"search strategy times, marginal mode (M)",[1]; [8],3
same,"search strategy times, random mode (R)",[1]; [8],9
same,"search strategy times, tendency mode (T)",[1]; [8],18
same,"search strategy times, linear mode (L)",[1]; [9],3
same,"search strategy times, marginal mode (M)",[1]; [9],1
same,"search strategy times, random mode (R)",[1]; [9],13
same,"search strategy times, tendency mode (T)",[1]; [9],17
same,"search strategy times, linear mode (L)",[1]; [10],9
same,"search strategy times, marginal mode (M)",[1]; [10],0
same,"search strategy times, random mode (R)",[1]; [10],7
same,"search strategy times, tendency mode (T)",[1]; [10],18
same,"search strategy times, linear mode (L)",[1]; [11],17*
same,"search strategy times, marginal mode (M)",[1]; [11],0
same,"search strategy times, random mode (R)",[1]; [11],4
same,"search strategy times, tendency mode (T)",[1]; [11],13
same,"search strategy times, linear mode (L)",[1]; [12],4
same,"search strategy times, marginal mode (M)",[1]; [12],4
same,"search strategy times, random mode (R)",[1]; [12],16
same,"search strategy times, tendency mode (T)",[1]; [12],10
same,"search strategy times, linear mode (L)",[1]; [13],1
same,"search strategy times, marginal mode (M)",[1]; [13],2
same,"search strategy times, random mode (R)",[1]; [13],12
same,"search strategy times, tendency mode (T)",[1]; [13],19
same,"search strategy times, linear mode (L)",[1]; [14],6
same,"search strategy times, marginal mode (M)",[1]; [14],0
same,"search strategy times, random mode (R)",[1]; [14],7
same,"search strategy times, tendency mode (T)",[1]; [14],21
same,"search strategy times, linear mode (L)",[1]; [15],7
same,"search strategy times, marginal mode (M)",[1]; [15],1
same,"search strategy times, random mode (R)",[1]; [15],5
same,"search strategy times, tendency mode (T)",[1]; [15],20
same,"search strategy times, linear mode (L)",[1]; [16],9
same,"search strategy times, marginal mode (M)",[1]; [16],0
same,"search strategy times, random mode (R)",[1]; [16],2
same,"search strategy times, tendency mode (T)",[1]; [16],23
same,SOD activity in the hippocampus,SOD; 50 mg/kg oral,156.2±7.8 U/mg protein
same,SOD activity in the hippocampus,SOD; 160 mg/kg oral,158.7±11.4 U/mg protein
same,SOD activity in the cortex,SOD; cortex,did not significantly improve SOD activity
same,MDA level in the hippocampus,MDA; 50 mg/kg oral,1.23±0.05 nmol/mg protein
same,decrease of hippocampus MDA level compared with SAMP8,MDA; 50 mg/kg oral,35.3%
same,MDA level in the hippocampus,MDA; 160 mg/kg oral,1.26±0.09 nmol/mg protein
same,decrease of hippocampus MDA level compared with SAMP8,MDA; 160 mg/kg oral,33.7%
same,MDA level in the cortex,"MDA; cortex, data not shown",did not significantly improved in MDA level
